Data: the CheMixHub ionic liquid set

Test: xn = mol fraction of the nth substance listed

O=S(=O)([O-])[O-].[Na+].[Na+] + CCCCCCCCCCCC[N+](C)(C)C.[Br-] + O
298.15 K, 101 kPa
Conditions | electrical conductivity [S/m]
x2 = 0, x1 = 0.0001802 | 0.219
x2 = 0, x1 = 0.001799 | 1.527
x2 = 1.98e-06, x1 = 0.0001802 | 0.2192
x2 = 4.2e-06, x1 = 0.001799 | 1.523
x2 = 6.31e-06, x1 = 0.0001802 | 0.2208
x2 = 1.064e-05, x1 = 0.0001802 | 0.2225
x2 = 1.241e-05, x1 = 0.001799 | 1.523
x2 = 1.516e-05, x1 = 0.0001802 | 0.2243
x2 = 2.061e-05, x1 = 0.001799 | 1.525
x2 = 2.201e-05, x1 = 0.0001802 | 0.2272
x2 = 2.882e-05, x1 = 0.001799 | 1.526
x2 = 3.067e-05, x1 = 0.0001802 | 0.231
x2 = 3.667e-05, x1 = 0.001799 | 1.528
x2 = 3.951e-05, x1 = 0.0001802 | 0.2348
x2 = 4.451e-05, x1 = 0.001799 | 1.531
x2 = 5.088e-05, x1 = 0.0001802 | 0.2397
x2 = 5.235e-05, x1 = 0.001799 | 1.533
x2 = 6.188e-05, x1 = 0.0001802 | 0.2448
x2 = 6.221e-05, x1 = 0.001799 | 1.536
x2 = 6.932e-05, x1 = 0.001799 | 1.538
x2 = 7.271e-05, x1 = 0.0001801 | 0.2498
x2 = 7.662e-05, x1 = 0.001799 | 1.54
x2 = 8.353e-05, x1 = 0.0001801 | 0.2543
x2 = 8.391e-05, x1 = 0.001799 | 1.542
x2 = 9.048e-05, x1 = 0.001799 | 1.544
x2 = 9.435e-05, x1 = 0.0001801 | 0.2592
x2 = 9.741e-05, x1 = 0.001799 | 1.546
x2 = 0.0001038, x1 = 0.001799 | 1.548
x2 = 0.0001048, x1 = 0.0001801 | 0.2637
x2 = 0.0001104, x1 = 0.001799 | 1.55
x2 = 0.0001153, x1 = 0.0001801 | 0.2682
x2 = 0.0001173, x1 = 0.001799 | 1.553
x2 = 0.0001239, x1 = 0.001799 | 1.556
x2 = 0.0001257, x1 = 0.0001801 | 0.2729
x2 = 0.0001315, x1 = 0.001799 | 1.56
x2 = 0.0001364, x1 = 0.0001801 | 0.2774
x2 = 0.0001404, x1 = 0.001799 | 1.563
x2 = 0.0001467, x1 = 0.0001801 | 0.2821
x2 = 0.0001478, x1 = 0.001798 | 1.565
x2 = 0.0001549, x1 = 0.001798 | 1.567
x2 = 0.0001569, x1 = 0.0001801 | 0.2866
x2 = 0.0001623, x1 = 0.001798 | 1.569
x2 = 0.0001672, x1 = 0.0001801 | 0.2912
x2 = 0.0001702, x1 = 0.001798 | 1.571
x2 = 0.0001775, x1 = 0.0001801 | 0.2956
x2 = 0.0001777, x1 = 0.001798 | 1.573
x2 = 0.0001851, x1 = 0.001798 | 1.575
x2 = 0.0001876, x1 = 0.0001801 | 0.3
x2 = 0.000193, x1 = 0.001798 | 1.577
x2 = 0.0001975, x1 = 0.0001801 | 0.3042
x2 = 0.0001997, x1 = 0.001798 | 1.579
x2 = 0.0002074, x1 = 0.001798 | 1.58
x2 = 0.0002076, x1 = 0.0001801 | 0.308
x2 = 0.000215, x1 = 0.001798 | 1.582
x2 = 0.0002175, x1 = 0.0001801 | 0.311
x2 = 0.000222, x1 = 0.001798 | 1.584
x2 = 0.0002275, x1 = 0.0001801 | 0.3132
x2 = 0.0002287, x1 = 0.001798 | 1.586
x2 = 0.0002358, x1 = 0.001798 | 1.588
x2 = 0.0002368, x1 = 0.0001801 | 0.3149
x2 = 0.0002431, x1 = 0.001798 | 1.589
x2 = 0.0002466, x1 = 0.0001801 | 0.3165
x2 = 0.0002504, x1 = 0.001798 | 1.591
x2 = 0.0002565, x1 = 0.0001801 | 0.3178
x2 = 0.0002612, x1 = 0.001798 | 1.594
x2 = 0.000266, x1 = 0.0001801 | 0.3191
x2 = 0.0002739, x1 = 0.001798 | 1.597
x2 = 0.0002776, x1 = 0.0001801 | 0.3205
x2 = 0.0002909, x1 = 0.0001801 | 0.322
x2 = 0.0003061, x1 = 0.0001801 | 0.3238
x2 = 0.0003232, x1 = 0.0001801 | 0.3257
x2 = 0.0003423, x1 = 0.0001801 | 0.3278
x2 = 0.0003636, x1 = 0.0001801 | 0.3305
x2 = 0.0003892, x1 = 0.0001801 | 0.3335

F[B-](F)(F)F.[Li+] + CC[n+]1ccn(C)c1.O=S(=O)([N-]S(=O)(=O)C(F)(F)F)C(F)(F)F
electrical conductivity [S/m], 101 kPa
Conditions | x2 = 0.7088 | x2 = 0.7396 | x2 = 0.8073 | x2 = 0.8856 | x2 = 0.9623
288.15 K | – | 0.238 | 0.31 | 0.431 | 0.542
298.15 K | 0.295 | 0.384 | 0.489 | 0.651 | 0.807
333.15 K | 1.01 | 1.18 | 1.4 | 1.72 | 2.03

C[n+]1ccn(CCC(F)(F)C(F)(F)F)c1.F[P-](F)(F)(F)(F)F + CCCC[n+]1ccn(C)c1.F[P-](F)(F)(F)(F)F
Conditions | viscosity [mPa·s]
338.16 K, 100 kPa, x2 = 0.972 | 40.9

CCCCCCCCCCCCCCCC[n+]1ccccc1.O=C([O-])C(O)c1ccccc1 + CC(C)C[C@H](N)C(=O)O + O
electrical conductivity [S/m], 101 kPa
Conditions | 293.15 K | 298.15 K | 303.15 K | 308.15 K | 313.15 K
x1 = 9.1e-07, x2 = 0.001799 | 0.00171 | 0.00194 | 0.00216 | 0.0024 | 0.0027
x1 = 1.08e-06, x2 = 0 | 0.00061 | 0.00068 | 0.00076 | 0.00083 | 0.0009
x1 = 1.27e-06, x2 = 0.0009002 | 0.00143 | 0.0016 | 0.0018 | 0.002 | 0.0022
x1 = 1.98e-06, x2 = 0 | 0.001 | 0.0012 | 0.0013 | 0.0014 | 0.0016
x1 = 2.19e-06, x2 = 0.001799 | 0.00211 | 0.00239 | 0.00267 | 0.003 | 0.0033
x1 = 2.54e-06, x2 = 0.0009002 | 0.00187 | 0.00211 | 0.00235 | 0.0026 | 0.0029
x1 = 2.88e-06, x2 = 0 | 0.00147 | 0.0016 | 0.0018 | 0.002 | 0.0022
x1 = 3.1e-06, x2 = 0.001799 | 0.00244 | 0.00277 | 0.00309 | 0.0034 | 0.0038
x1 = 3.44e-06, x2 = 0.0009002 | 0.0022 | 0.00251 | 0.00278 | 0.0031 | 0.0034
x1 = 3.96e-06, x2 = 0 | 0.0019 | 0.0022 | 0.0024 | 0.0026 | 0.0029
x1 = 4.19e-06, x2 = 0.001799 | 0.00279 | 0.00316 | 0.00352 | 0.0039 | 0.0043
x1 = 4.69e-06, x2 = 0 | 0.0023 | 0.0026 | 0.0029 | 0.0031 | 0.0035
x1 = 4.71e-06, x2 = 0.0009002 | 0.00261 | 0.00294 | 0.00329 | 0.0036 | 0.004
x1 = 5.1e-06, x2 = 0.001799 | 0.00312 | 0.00353 | 0.00394 | 0.0044 | 0.0048
x1 = 5.95e-06, x2 = 0 | 0.00281 | 0.0032 | 0.0035 | 0.0038 | 0.0042
x1 = 5.98e-06, x2 = 0.0009002 | 0.00307 | 0.00345 | 0.00384 | 0.0043 | 0.0047
x1 = 6.74e-06, x2 = 0.001799 | 0.00363 | 0.0041 | 0.00457 | 0.0051 | 0.0056
x1 = 7.21e-06, x2 = 0 | 0.00341 | 0.0038 | 0.0042 | 0.0046 | 0.0051
x1 = 7.43e-06, x2 = 0.0009002 | 0.00352 | 0.00397 | 0.00441 | 0.0049 | 0.0054
x1 = 8.2e-06, x2 = 0.001799 | 0.00408 | 0.00463 | 0.00516 | 0.0057 | 0.0064
x1 = 8.7e-06, x2 = 0.0009002 | 0.00394 | 0.00445 | 0.00497 | 0.0055 | 0.0061
x1 = 8.83e-06, x2 = 0 | 0.00406 | 0.0046 | 0.005 | 0.0055 | 0.006
x1 = 9.84e-06, x2 = 0.001799 | 0.00451 | 0.00511 | 0.00572 | 0.0064 | 0.0071
x1 = 1.045e-05, x2 = 0 | 0.00469 | 0.0053 | 0.0058 | 0.0065 | 0.0071
x1 = 1.051e-05, x2 = 0.0009002 | 0.00444 | 0.00501 | 0.0056 | 0.0062 | 0.0069
x1 = 1.13e-05, x2 = 0.001799 | 0.00486 | 0.00551 | 0.00618 | 0.0069 | 0.0077
x1 = 1.196e-05, x2 = 0.0009002 | 0.00475 | 0.00538 | 0.006 | 0.0067 | 0.0075
x1 = 1.207e-05, x2 = 0 | 0.00516 | 0.0058 | 0.0064 | 0.0071 | 0.0079
x1 = 1.294e-05, x2 = 0.001799 | 0.00522 | 0.00591 | 0.00661 | 0.0074 | 0.0082
x1 = 1.323e-05, x2 = 0.0009002 | 0.00506 | 0.00573 | 0.0064 | 0.0071 | 0.0079
x1 = 1.351e-05, x2 = 0 | 0.00562 | 0.00631 | 0.007 | 0.0077 | 0.0085
x1 = 1.44e-05, x2 = 0.001799 | 0.00556 | 0.00629 | 0.00704 | 0.0079 | 0.0088
x1 = 1.468e-05, x2 = 0.0009002 | 0.00539 | 0.00609 | 0.0068 | 0.0076 | 0.0084
x1 = 1.478e-05, x2 = 0 | 0.00603 | 0.0068 | 0.0075 | 0.0083 | 0.0092
x1 = 1.585e-05, x2 = 0.001799 | 0.00586 | 0.00664 | 0.00743 | 0.0083 | 0.0092
x1 = 1.595e-05, x2 = 0.0009002 | 0.00568 | 0.00642 | 0.0072 | 0.008 | 0.0089
x1 = 1.622e-05, x2 = 0 | 0.00644 | 0.0072 | 0.008 | 0.0089 | 0.0098
x1 = 1.722e-05, x2 = 0.0009002 | 0.00598 | 0.00676 | 0.0075 | 0.0084 | 0.0093
x1 = 1.731e-05, x2 = 0.001799 | 0.00617 | 0.00698 | 0.00783 | 0.0087 | 0.0097
x1 = 1.766e-05, x2 = 0 | 0.00687 | 0.0077 | 0.0085 | 0.0094 | 0.0104

CC(C)=O + CCCC[n+]1ccn(C)c1.O=S(=O)([N-]S(=O)(=O)C(F)(F)F)C(F)(F)F
296.35 K, 100 kPa, frequency 0.01 MHz
Conditions | electrical conductivity [S/m]
x2 = 0.01616 | 1.1
x2 = 0.0257 | 2.71
x2 = 0.0419 | 4.22
x2 = 0.07374 | 5.7
x2 = 0.1478 | 4.72
